Key:
Test in all cases: Agar dilution MIC
Conditions in all cases: 35° C., 16-20 hours
[1] = system: E. faecium MRO 04198; assay type: cell-based, Enterococcus faecium
Description: (§1) Briefly, the compounds of invention were weighed, dissolved in dimethyl sulfoxide, serially two fold diluted in the same solvent and then incorporated into molten Mueller Hinton Agar (MHA) in a petridish just before solidification, with each petridish containing a different concentration of a compound.
(§2) The bacterial inoculum was prepared by picking 3 to 5 well isolated bacterial colonies with the same morphological appearance from an 18-24 hours old culture with an inoculating loop, transferring the growth to a tube containing 3 mL of normal saline and adjusting the turbidity of the saline suspension to 0.5 Mc Farland Turbidity Standard equivalent to a bacterial population of 1.5×10^8 colony forming units (CFU) per mL of suspension. The suspension was diluted 1:10 in saline (i.e. 0.5 mL suspension 4.5 mL saline) to get a bacterial population of 1.5×10^7 CFU/mL as inoculum.
(§3) The inoculated petridishes were incubated at 35° C. in an ambient atmosphere for 16-20 hours.

[2] = system: E. faecium MRO 04037; assay type: cell-based, Enterococcus faecium
Description: as §1, §2, §3

[3] = system: E. faecium ATCC 700221; assay type: cell-based, Enterococcus faecium
Description: as §1, §2, §3

[4] = system: E. faecium MRO 04038; assay type: cell-based, Enterococcus faecium
Description: as §1, §2, §3

[5] = system: E. faecalis ATCC 29212; assay type: cell-based, Enterococcus faecalis
Description: as §1, §2, §3

[6] = system: E. faecalis MRO 04035; assay type: cell-based, Enterococcus faecalis
Description: as §1, §2, §3

[7] = system: E. faecalis ATCC 51299; assay type: cell-based, Enterococcus faecalis
Description: as §1, §2, §3

[8] = system: E. faecalis MRO 04205; assay type: cell-based, Enterococcus faecalis
Description: as §1, §2, §3

[9] = system: E. faecalis MRO 04050; assay type: cell-based, Enterococcus faecalis
Description: as §1, §2, §3

[10] = system: S. aureus MRO 00013; assay type: cell-based, Staphylococcus aureus
Description: as §1, §2, §3

[11] = system: S. aureus ATCC 43300; assay type: cell-based, Staphylococcus aureus
Description: as §1, §2, §3

[12] = system: S. aureus ATCC 29213; assay type: cell-based, Staphylococcus aureus
Description: as §1, §2, §3

[13] = system: S. aureus MRO 0001; assay type: cell-based, Staphylococcus aureus
Description: as §1, §2, §3

[14] = system: S. aureus MRO 00059; assay type: cell-based, Staphylococcus aureus
Description: as §1, §2, §3

[15] = system: S. aureus MRO 0003; assay type: cell-based, Staphylococcus aureus
Description: as §1, §2, §3

[16] = system: S. aureus MRO 00030; assay type: cell-based, Staphylococcus aureus
Description: as §1, §2, §3

[17] = system: S. aureus MRO 00048; assay type: cell-based, Staphylococcus aureus
Description: as §1, §2, §3

[18] = system: S. aureus MRO 00055; assay type: cell-based, Staphylococcus aureus
Description: as §1, §2, §3

[19] = system: S. aureus MRO 002053; assay type: cell-based, Staphylococcus aureus
Description: as §1, §2, §3

[20] = system: S. epidermidis MRO 002046; assay type: cell-based
Description: as §1, §2, §3

[21] = system: S. haemolyticus MRO 02064; assay type: cell-based
Description: as §1, §2, §3

[22] = system: S. saprophyticus MRO 02003; assay type: cell-based
Description: as §1, §2, §3

[23] = system: S. epidermidis MRO 02002; assay type: cell-based
Description: as §1, §2, §3

[24] = system: S. epidermidis MRO 02095; assay type: cell-based
Description: as §1, §2, §3

[25] = system: S. epidermidis MRO 02045; assay type: cell-based
Description: as §1, §2, §3

[26] = system: M. catarrhalis ATCC 43627; assay type: cell-based, Moraxella catarrhalis
Description: as §1, §2, §3

[27] = system: M. catarrhalis ATCC 43617; assay type: cell-based, Moraxella catarrhalis
Description: as §1, §2, §3

[28] = system: M. catarrhalis ATCC 43628; assay type: cell-based, Moraxella catarrhalis
Description: as §1, §2, §3

Measured: Antimicrobial Screening (MIC)

COC(=S)NC[C@H]1CN(c2ccc(N3CCN(C(=O)c4ccno4)CC3)c(F)c2)C(=O)O1 [Example 44, (S)—O-M ethyl(3-(3-fluoro-4-(4-(isoxazole-5-carbonyl)piperazin-1-yl)phenyl)-2-oxooxazolidin-5-yl)methylcarbamothioate]
2 µg/mL: [26]
1 µg/mL: [27] | [28]
0.25 µg/mL: [1] | [2] | [3] | [4] | [5] | [6] | [7] | [8] | [17] | [20] | [21] | [24]
0.5 µg/mL: all other assays above

COC(=S)NC[C@H]1CN(c2ccc(N3CCN(C(=S)n4ccnc4)CC3)c(F)c2)C(=O)O1 [Example 76, (S)—O-Methyl(3-(4-(4-(1H-imidazole-1-carbonothioyl)piperazin-1-yl)-3-fluorophenyl)-2-oxooxazolidin-5-yl)methylcarbamothioate]
0.5 µg/mL: [10] | [12] | [13] | [15] | [18] | [22]
1 µg/mL: [26] | [27] | [28]
0.25 µg/mL: all other assays above

COC(=S)NC[C@H]1CN(c2ccc(N3CCN(C(=O)c4ccc(N)nc4)CC3)c(F)c2)C(=O)O1 [Example 37, (S)—O-Methyl(3-(4-(4-(6-aminonicotinoyl)piperazin-1-yl)-3-fluorophenyl)-2-oxooxazolidin-5-yl)methylcarbamothioate]
1 µg/mL: [27] | [28]
0.5 µg/mL: [10] | [11] | [12] | [14] | [15] | [16] | [18] | [20] | [22] | [23] | [24]
2 µg/mL: [26]
0.25 µg/mL: all other assays above

COC(=S)NC[C@H]1CN(c2ccc(N3CCN(C(=O)c4cccnc4)CC3)c(F)c2)C(=O)O1 [Example 2, (S)—O-Methyl(3-(3-fluoro-4-(4-nicotinoylpiperazin-1-yl)phenyl)-2-oxooxazolidin-5-yl)methylcarbamothioate]
0.5 µg/mL: [1] | [2] | [3] | [4] | [6] | [7] | [8] | [13] | [17]
4 µg/mL: [26] | [28]
1 µg/mL: all other assays above

Source: patent publication US20100234390A1, “NOVEL COMPOUND AND THEIR USE” (priority 2007, published 2010)
